US10725043B2, “Three-dimensional fibroblast aggregate and in vitro 3D skin dermis model comprising same” (S-BIOMEDICS, priority 2015, dated 2020)

Legend:
MMP1 [1] = test: MMP1 secretion (ELISA) in 3D fibroblast cluster treated with MMP inhibitors; type: cell-based, human; conditions: retinoic acid 10 mM, abietic acid 100 mM, TGF-b1 5 ng/ml, cultured 2 and 4 days, FIG. 16
Experimental: To prepare an in vitro 3D artificial dermis model, fibroblasts were first cultured. In detail, human dermal fibroblasts were cultured in high glucose Dulbecco's modified Eagle's medium (DMEM, Welgene, Daegu, South Korea) by using a tissue culture flask under conditions of 37° C., 5% CO2, and 95% O2 atmosphere. Human dermal fibroblasts of 5 passages were used for all experiments.
The fibroblasts were seeded onto the culture container, thereby preparing a 3D fibroblast cluster. In detail, fibroblasts were seeded onto the 96-well NTCP containing fibroblast growth medium (FGM, Lonza) at a concentration of 1.25×10^5 cells/cm^2 per well, and cultured at a temperature of 37° C. The fibroblasts were cultured in a 2D manner on a surface of the culture container, and separated from the surface. Such separated or delocalized 2D fibroblast cluster was then continuously cultured while floating in the culture container, and within 24 hours, a 3D fibroblast cluster was formed spontaneously. The formed 3D fibroblast cluster was collected on the 1st day (Day 1), 3rd day (Day 3), and 5th day (Day 5) of the culture. […] Hereinafter, the 3D fibroblast cluster was represented by ‘3DCM’.
In detail, the 3D fibroblast cluster of the culture at Day 1 prepared according to Example 2(1) was inoculated with retinoic acid (10 mM), abietic acid (100 mM), transforming growth factor-b1 (TGF-b1) (5 ng/ml) that were diluted in a […] (FGM, Lonza Company). The inoculated 3D fibroblast cluster was then cultured in a stationary incubator at a temperature of 37° C. for 2 and 4 days, separately. The culture broth was recovered therefrom, and was subjected to measurement of secretion of MMP1. Through the measurement, the culture broth was quantified by using the ELISA kit (R&D Company), wherein a method of using the kit was proceeded according to the supplier's protocol.

MMP1 [2] = test: MMP1 secretion (ELISA) in two-dimensionally cultured, UVB-irradiated fibroblasts treated with MMP inhibitors; type: cell-based, human; conditions: for decrease of MMP1 in 2D cells in comparison with the 3D cell cluster: 2D UVB fibroblasts versus 3D cell cluster; for secreted amount of MMP1 relative to the control group: 2D fibroblasts, UVB 20 mJ/cm^2, 2 days, FIG. 17
Experimental: As a control group for the 3D fibroblast cluster and for the comparison of the inhibitory effect of MMP inhibitors using the two-dimensionally cultured fibroblasts, fibroblasts irradiated with ultraviolet B (UVB) were used. In detail, fibroblasts that were suspended in high-concentration glucose DMEM were seeded onto each well of a tissue culture treated 6-well plate at a concentration of 2.5×10^5 cells/cm^2, and then, cultured in a stationary incubator at a temperature of 37° C. for 1 day. Next, a washing process was performed thereon three times by using PBS, a serum-free MEM medium was added thereto, and the fibroblasts were cultured in a stationary incubator at a temperature of 37° C. for 1 hour. After a washing process was performed thereon three times by using PBS, to induce overexpression of MMP1, UVB (20 mJ/cm^2) was irradiated thereto. Following UV irradiation, the resulting fibroblasts were inoculated with various concentrations of retinoic acid (2, 10, 40 mM), abietic acid (20, 100, 400 mM), and TGF-b1 (1, 5, 20, ng/ml) that were diluted in a fibroblast growth medium (FGM, Lonza Company). The inoculated fibroblasts were then additionally cultured in a stationary incubator at a temperature of 37° C. for 2 days. The culture broth was recovered therefrom, and was subjected to measurement of secretion of MMP1. Through the measurement, the culture broth was quantified by using the ELISA kit (R&D Company), wherein a method of using the kit was proceeded according to the supplier's protocol.

[3] = retinoic acid 2, 10, TGF-b1 1, 5, 20 ng/ml

## CC1=C(/C=C/C(C)=C/C=C/C(C)=C/C(=O)O)C(C)(C)CCC1 [retinoic acid]
MMP1 [1]
  secretion levels of MMP1 relative to the control group: about 80%
MMP1 [2]
  decrease of MMP1 in 2D cells in comparison with the 3D cell cluster: about 2.7 times
MMP1 [2]; [3]
  secreted amount of MMP1 relative to the control group: about 30%

## transforming growth factor-b1 [TGF-b1]
MMP1 [1]
  secretion levels of MMP1 relative to the control group: about 60%
MMP1 [2]
  decrease of MMP1 in 2D cells in comparison with the 3D cell cluster: 1.7 to 2.4 times
MMP1 [2]; [3]
  secreted amount of MMP1 relative to the control group: 25-35%

## CC(C)C1=CC2=CC[C@@H]3[C@](C)(CCC[C@@]3(C)C(=O)O)[C@H]2CC1 [abietic acid]
MMP1 [1]
  secretion levels of MMP1 relative to the control group: ~81%
MMP1 [2]; abietic acid 20 mM
  secreted amount of MMP1 relative to the control group: approximately reduced to half
MMP1 [2]; abietic acid at least 100 mM
  secreted amount of MMP1 relative to the control group: about 2%
